≈ marks a conversion by molar mass, not a printed value. Read-outs that look alike come from different tables or passages of the source.
Experiments:
[1] = tested on: C. albicans ATCC 10231 (strain A) biofilm formation; test: Prevention of biofilm formation assay; assay type: cell-based, Candida albicans
Protocol: Biofilm prevention assays were set up identically to the ordinary MIC experiment, where compounds were diluted, and the fungi added. After overnight growth, the plates were washed as in the biofilm disruption assay and stained and measured in the same fashion.
A large amount of fungal cells were exposed to the monohydrazides at time 0 h to evaluate the effect of these compounds in the prevention of Candida biofilm formation (FIG. 5B). […] Although some of these monohydrazides were able to prevent biofilm formation, none of these compounds had any effect in terms of the disruption of already pre-formed biofilms (FIG. 5A).

[2] = tested on: C. albicans ATCC 10231 (strain A); test: Time-kill assay; assay type: cell-based, Candida albicans; settings: at 4×MIC; CFU at 0-24 h
Protocol: Compounds were then added to the fungal cells. […] Experiments were performed in duplicate.

[3] = tested on: Saccharomyces cerevisiae AR Bank #400; test: MIC determination by in vitro antifungal assay; assay type: cell-based
Protocol: The antifungal agent amphotericin B (AmB) was purchased from VWR (Radnor PA, USA). AmB was dissolved in DMSO at a final concentration of 5 mg/mL and was stored at −20° C., protected from light. Candida albicans American Type Culture Collection (ATCC) 10231 (strain A), C. albicans ATCC 64124 (B), and C. albicans ATCC MYA-2876 (C) were obtained from Utah State University. C. albicans ATCC 90819 (D), C. albicans ATCC MYA-2310 (E), C. albicans ATCC MYA-1237 (F), C. albicans ATCC MYA-1003 (G), Candida glabrata ATCC 2001 (H), Candida krusei ATCC 6258 (I), Candida parapsilosis ATCC 22019 (J), Cryptococcus neoformans ATCC MYA-895 (M), Aspergillus terreus ATCC MYA-3633 (N), and Aspergillus flavus ATCC MYA-3631 (0) were obtained from the American Type Culture Collection (ATCC; Manassas, VA, USA). Aspergillus nidulans ATCC 38163 (P) was obtained from University of Kentucky. Clinically derived Aspergillus fumigatus NRRL 163 (Q), A. fumigatus NRRL 5109 (R), and A. fumigatus NRRL 6113 (S) were obtained from Northern Regional Research Laboratory (NRRL). Candida auris 384 (K), C. auris 390 (L), and fungal strains 381-400 (including 10 C. auris (AR Bank #381-390), 3 Candida duobushaemulonii (AR Bank #391, AR Bank #392, and AR Bank #394), 2 Candida haemulonii (AR Bank #393 and AR Bank #395), 1 Kodameae ohmeri (AR Bank #396), 1 C. krusei (AR Bank #397), 1 Candida lusitaniae (AR Bank #398), and 2 Saccharomyces cerevisiae strains (AR Bank #399 and AR Bank #400)) were part of a larger fungal library from the AR Bank maintained by the Centers for Disease Control and Prevention (CDC; Atlanta, GA, USA). Filamentous fungi and yeasts were cultivated at 35° C. in RPMI 1640 medium (with L-glutamine, without sodium bicarbonate, Sigma-Aldrich, St. Louis, MO) buffered to a pH of 7.0 with 0.165 M morpholinepropanesulfonic acid (MOPS) buffer (Sigma-Aldrich). For cytotoxicity assays, HepG2 and the mouse macrophage cell line J774A.1 were obtained from University of Kentucky. The human embryonic kidney cell line, HEK-293, was bought from the ATCC. Mammalian cells were grown in Dulbecco's Modified Eagle's Medium (DMEM) (from VWR) with 10% fetal bovine serum (FBS) (from VWR) and 1% Pen/Strep (from ATCC). Cell lines were cultured at 37° C. with 5% CO2 and passaged by trypsinization with 0.05% trypsin: 0.53 mM EDTA (from Sigma-Aldrich).
From the actively growing yeast culture, 100 µL were then transferred to 900 μL of RPMI 1640 medium and re-adjusted to achieve OD600 of 0.12 (˜1×10^6 CFU/mL). The cell suspension was further diluted to achieve 1:100 in RPMI 1640 medium.

| SMILES | concentration active in prevention of biofilm formation [1] [j·tg mL^−1] | prevention of biofilm formation [1] | further results |
| --- | --- | --- | --- |
| O=C(NNc1cccc(F)c1)c1ccccn1 [Compound 2a] | 7.8 |  |  |
| O=C(NNc1cccc(Cl)c1)c1ccccn1 [Compound 2b] |  |  | fungistatic or fungicidal behavior in time-kill assay [2]: fungistatic |
| COc1cccc(NNC(=O)c2ccccn2)c1 [Compound 2c] | 1.96 |  | MIC [3]: 7.8 μg/mL^−1 |
| O=C(NNc1ccc(F)cc1)c1ccccn1 [Compound 2d] | 1.96 |  |  |
| COc1ccc(NNC(=O)c2ccccn2)cc1 [Compound 2f] | 7.8 |  |  |
| O=C(NNc1ccc(F)cc1F)c1ccccn1 [Compound 2g] |  | not capable of preventing |  |
| O=C(NNc1cc(F)ccc1F)c1ccccn1 [Compound 2h] |  | not capable of preventing |  |
| O=C(NNc1cc(F)cc(F)c1)c1ccccn1 [Compound 2i] |  | not capable of preventing |  |
| O=C(NNc1cc(Cl)cc(Cl)c1)c1ccccn1 [Compound 2j] |  | not capable of preventing | MIC ([3]; read-out: MIC): 3.9 µg/mL (≈ 13.8 µM) |
| COc1cccc(NNC(=O)c2cnccn2)c1 [Compound 9c] |  |  | MIC ([3]; read-out: MIC): 3.9 µg/mL (≈ 16 µM) |
| O=C(NNc1ccc(Cl)cc1)c1cnccn1 [Compound 9e] |  |  | MIC [3]: 3.9 μg/mL^−1 |

Source: US20240425464A1, “Substituted Monohydrazides as Potent Antifungal Agents” (University of Kentucky Research Foundation, priority 2023, published 2024)
